Experimental data reported in ChEMBL document CHEMBL2202954, “The effect of PLC-γ2 inhibitors on the growth of human tumour cells” (2012).

Experiments:
Assay type in all cases: functional
T47D = assay: Cytotoxicity against human T47D cells assessed as cellular growth at 10 uM by SRB assay
MDA-MB-231 = assay: Cytotoxicity against human MDA-MB-231 cells assessed as cellular growth at 10 uM by SRB assay
UO-31 = assay: Cytotoxicity against human UO31 cells assessed as cellular growth at 10 uM by SRB assay
SN12C = assay: Cytotoxicity against human SN12C cells assessed as cellular growth at 10 uM by SRB assay
A498 = assay: Cytotoxicity against human A498 cells assessed as cellular growth at 10 uM by SRB assay
SK-OV-3 = assay: Cytotoxicity against human SKOV3 cells assessed as cellular growth at 10 uM by SRB assay
OVCAR-4 = assay: Cytotoxicity against human OVCAR4 cells assessed as cellular growth at 10 uM by SRB assay
OVCAR-5 = assay: Cytotoxicity against human OVCAR5 cells assessed as cellular growth at 10 uM by SRB assay
IGROV-1 = assay: Cytotoxicity against human IGROV1 cells assessed as cellular growth at 10 uM by SRB assay
MDA-MB-435 = assay: Cytotoxicity against human MDA-MB-435 cells assessed as cellular growth at 10 uM by SRB assay
U-251 = assay: Cytotoxicity against human U251 cells assessed as cellular growth at 10 uM by SRB assay
SF-268 = assay: Cytotoxicity against human SF268 cells assessed as cellular growth at 10 uM by SRB assay
HCT-116 = assay: Cytotoxicity against human HCT116 cells assessed as cellular growth at 10 uM by SRB assay
HCC 2998 = assay: Cytotoxicity against human HCC2998 cells assessed as cellular growth at 10 uM by SRB assay
COLO 205 = assay: Cytotoxicity against human COLO205 cells assessed as cellular growth at 10 uM by SRB assay
HOP-92 = assay: Cytotoxicity against human HOP92 cells assessed as cellular growth at 10 uM by SRB assay
HOP-62 = assay: Cytotoxicity against human HOP62 cells assessed as cellular growth at 10 uM by SRB assay
A549 = assay: Cytotoxicity against human A549 cells assessed as cellular growth at 10 uM by SRB assay
CCRF-CEM = assay: Cytotoxicity against human CCRF-CEM cells assessed as cellular growth at 10 uM by SRB assay
SR = assay: Cytotoxicity against human SR cells assessed as cellular growth at 10 uM by SRB assay

Row | Compound | Activity (T47D) | Activity (MDA-MB-231) | Activity (UO-31) | Activity (SN12C) | Activity (A498) | Activity (SK-OV-3) | Activity (OVCAR-4) | Activity (OVCAR-5) | Activity (IGROV-1) | Activity (MDA-MB-435) | Activity (U-251) | Activity (SF-268) | Activity (HCT-116) | Activity (HCC 2998) | Activity (COLO 205) | Activity (HOP-92) | Activity (HOP-62) | Activity (A549) | Activity (CCRF-CEM) | Activity (SR)
1 | O=C(NCc1cccnc1)c1sc2cc([N+](=O)[O-])ccc2c1Cl | 84.08% | 117.28% | 76.73% | 92.4% | 66.73% | 91.06% | 102.6% | 105.26% | 106.67% | 95.22% | 90.3% | 99.64% | 99.66% | 104.9% | 118.05% | 98.76% | 97.3% | 91.87% | 100.08% | 
2 | O=C1N=C(c2ccccc2)S/C1=C\c1ccc2c(c1)OCO2 | 94.58% | 104.95% | 86.92% | 94.15% | 80.95% | 98.47% | 100.96% | 92.58% | 101.91% | 103.92% | 90.93% | 95.75% | 104.4% | 118.49% | 101.56% | 71.22% | 94.43% | 95.78% | 90.34% | 
3 | Cc1c(OCC(=O)c2ccccc2)ccc2c1oc(=O)c1ccccc12 | 94.27% | 104.28% | 107.51% | 101.41% | 91.47% | 101.55% | 106.31% | 108.12% | 115.73% | 98.4% | 98.92% | 100.71% | 107.52% | 117.13% | 117.2% | 103.71% | 105.3% | 93.47% | 95.27% | 
4 | O=C(NCCc1ccc(Cl)cc1)c1[nH]c2ccccc2c1Cl | 81.02% | 95.77% | 73.65% | 97.33% | 77.04% | 86.84% | 89.13% | 117.9% | 93.76% | 98.17% | 100.14% | 97.34% | 98.39% | 102.32% | 97.59% | 81.73% | 85.04% | 92.96% | 108.31% | 
5 | Cc1ccc(CNC(=O)c2[nH]c3ccccc3c2Cl)cc1 | 84.33% | 112.08% | 110.2% | 99.14% | 69% | 92.6% | 101.65% | 108.38% | 99.38% |  | 92.16% | 86.83% | 107.58% | 101.22% | 99.99% | 81.7% | 90.94% | 96.66% | 99.93% | 
6 | O=C(Nc1ccc2oc(=O)ccc2c1)c1ccc(-c2ccc(Br)cc2)o1 | 100.95% | 104.85% | 127.52% | 99.06% | 101.8% | 112.03% |  | 121.34% | 126.49% | 112.48% | 98.16% | 106.9% | 103.94% | 112.96% | 124.46% | 97.44% | 106.69% | 100.63% | 103.74% | 102.2%
7 | Cc1ccc(NC(=O)c2sc3nc(-c4cccs4)ccc3c2N)cc1C | 96.25% | 116.18% | 126.96% | 100.59% | 88.5% | 112.05% |  | 115.16% | 117.67% | 101.83% | 101.86% | 107.88% | 106.03% | 105.35% | 112.33% | 106.34% | 103.01% | 96.75% | 97.34% | 82.09%
8 | CC1(C)CCc2cc(-c3ccn(S(=O)(=O)c4cccc(C(F)(F)F)c4)n3)ccc2O1 | 66.31% | 95.04% | 97.36% | 91.59% | 94.88% | 96.16% |  | 108.57% | 109.7% | 97.38% | 81.96% | 102.56% | 74.24% | 104.44% | 123.8% | 38.91% | 102.63% | 80.37% | 74.11% | 66.68%
